Measured values as given in patent US9476099B2 (TRUSTEES OF DARTMOUTH COLLEGE, priority 2012, dated 2016).
“Also recorded” adds a separate entry of the source.

Columns and labels:
[1] = system: 833K-CP cells; experiment: Cisplatin sensitivity (cell viability) after low dose decitabine pretreatment; type: cell-based; conditions: 2.5 nM 3 days, 24 hour recovery, cisplatin 6 hours, viability 3 days later
Procedure: (§1) Cell viability was assayed 3 days later. For NT2D1-R1 cells, 10 nM decitabineR was employed. […] Data are the average of biological triplicates and representative of at least two experiments. Error bars are standard error of the mean (SEM).
(§2) Cell viability was assayed 3 days later. For NT2D1-R1 cells, 10 nM decitabineR was employed. […] Data are the average of biological triplicates and representative of at least two experiments. Error bars are SEM.
(§3) Five distinct lentiviral shRNAs for DNMT3B (sh84, sh85, sh86, sh87, and sh88) were used to knock down DNMT3B expression. Six potential alternatively spliced isoforms of DNMT3B exist; the most biologically relevant isoforms are variants 1, 2, 3 and 6 (Jones, P. A. and S. B. Baylin. 2007. Cell 128:683-692). […] Western blot analysis of NT2/D1 and NT2/D1-R1 cells was also performed with cells treated with DNMT3B shRNA ([…]) and employing DNMT3B antibody, H-230. The results confirmed the reduced expression of DNMT3B when the shRNA were employed. None of the DNMT3B-specific shRNAs affected levels of DNMT1 or DNMT3A (FIG. 2). […] However, knockdown of DNMT3B by itself had no apparent effect on the growth of NT2/D1 or NT2/D1-R1 cells. […] It had been previously reported that cisplatin causes a global p53-dominant transcriptional response in EC cells (Kerley-Hamilton et al. 2005. Oncogene 24:6090-6100). […]

[2] = system: NT2/D1-R1 cells; experiment: as above; type: cell-based; conditions: 10 nM 3 days, 24 hour recovery, cisplatin 6 hours, viability 3 days later
Procedure: as §1, §2, §3

[3] = system: colorectal cancer, cancer of the head and neck, renal carcinoma, or malignant melanoma; conditions: 75 mg/m^2, 3 treatments in one day, repeated once a week for 5 weeks; Abele et al. 1987; cited from earlier work
[4] = system: NT2/D1 cells; experiment: Apoptosis by PARP cleavage and sub G1 DNA content; type: cell-based; conditions: decitabine 10 nM, three days; NT2/D1
Procedure: (§4) Cells were cultured in DMEM media (Gibco) with 10% FBS. Decitabine was added fresh each day. Lentiviral control cells and the stable shRNA DNMT3B knockdown cell line (NT2/D1-R1-sh84) were described previously (Beyrouthy et al. 2009. Cancer Res. 69:9360-9366). DNMT3B knockdown was greater than 90% as confirmed by western blot analysis. Cell proliferation and survival were assessed with the CELL-TITRE GLO assay (Promega). Cell cycle analysis with propidium iodine has been previously described (Kerley-Hamilton et al. 2005. Oncogene 24:6090-6100).
(§5) SYBR green-based real-time PCR (Applied Biosystems) was employed using the ddCT method normalized to GAPDH. For western blot analysis cells were lysed in radioimmune precipitation buffer and separated by SDS-PAGE. Antibodies to actin (sc01615, Santa Cruz), 139-H2AX (Cell Signaling), PARP (c-2-10, Biomol International) and p53 (D0-1, Santa Cruz) were used.

[5] = system: phosphorylated H2AX in NT2/D1-R1 cells; experiment: DNA damage by induction of phosphorylated H2AX (western blot); type: cell-based; conditions: three day decitabine treatment
Excerpt: (§6) Importantly, decitabine-mediated H2AX activation also occurs in the presence of the caspase 3 inhibitor (Z-VAD-FMK) at concentrations that inhibit PARP cleavage.
as §5

[6] = system: NT2/D1-R1 cells; experiment: Cell-Titre Glo viable cell growth and survival, 3 day decitabine; type: cell-based; conditions: 10 nM, FIG. 1
Procedure: Indicated doses of decitabine were added fresh each day for three days to exponentially growing cultures. Viable cell growth and survival were measured. Data are normalized to no drug treatment. EC cells are NT2/D1, NT2D1/R1, 833K, 833KCP, and Tera-1. Data are the average of 3 experiments in biological duplicate except for MCF-7 cells, which were assayed twice. Error bars are standard deviation (S.D.).
Cell growth and viability of five EC cell lines (NT2/D1, NT2D1/R1, 833K, 833KCP, and Tera-1) were determined, including two cell lines that are cisplatin-resistant (NT2/D1-R1 and 833KCP). Three control somatic tumor cell lines were also tested (HCT116, MCF7 and U2OS). […] Viable cell growth and survival were measured using Cell-Titre Glo (Promega) assays. […] These higher values are similar to the values shown in FIG. 1 for somatic tumor cell lines (MCF7, U2OS and HCT116).
NT2/D1, NT2D1-R1, 833K, 833K-CP, Tera-1, U20S, and HCT116 cells were cultured in DMEM with 10% FBS supplemented with glutamine and antibiotics except for MCF7 cells that were cultured in F12-DMEM. The derivation of the NT2/D1-resistant NT2/D1-R1 cell line has been previously described (Curtin et al. 2001. Oncogene 20:2559-2569; Kerley-Hamilton et al. 2007. Biochim. Biophys. Acta 1769:209-219). Cells were treated with the indicated dosages of 5-azadeoxycytidine (5-aza-CdR) for 3 days. This drug was replenished each day. Cisplatin (Bristol Laboratories) treatments were performed at the concentrations and time points indicated. To assess cell proliferation and survival, CELL-TITRE GLO (Promega) assays were performed.
as §4

[7] = system: NT2 cells; experiment: Gene set enrichment analysis (GSEA) of microarray data (Table 6); type: cell-based, human
Procedure: Gene set enrichment analysis (GSEA) was performed.
Expression analysis was performed on the […] HumanHT-12 v3 or […] HumanHT-12 v4 bead chip arrays ([…]) and scanned on the BeadArray Reader ([…]) according to manufacturer's instructions.

[8] = system: NT2/D1-R1 cells; experiment: Apoptosis by PARP cleavage and sub G1 DNA content; type: cell-based; conditions: decitabine 10 nM, three days; NT2/D1-R1
Procedure: as §6, §4, §5

[9] = Gene Sets Depleted in NT2 Cells with 3-Day Decitabine Treatment (10 nM)
[10] = Gene Sets Enriched in NT2 Cells with 3-Day Decitabine Treatment (10 nM)

SMILES: Nc1ncn([C@H]2C[C@H](O)[C@@H](CO)O2)c(=O)n1 [decitabine, 5-aza-deoxycytidine]
- effect of low dose decitabine pretreatment on cisplatin-induced growth suppression and toxicity [1]: restored cisplatin-induced growth suppression and toxicity
- effect of low dose decitabine pretreatment on cisplatin-induced growth suppression and toxicity [2]: restored cisplatin-induced growth suppression and toxicity
- efficacy against cancer in patients [3]: no efficacy
- apoptotic responses (PARP cleavage, sub G1 DNA content with G2 arrest) [4]: apoptotic responses
- DNA damage assessed by induction of phosphorylated H2AX [5]: induced DNA damage
- inhibition of proliferation versus control [6]: 10%
- NES, BENPORATH_ES_1 [7, 9]: 2.6981
- NES, BENPORATH_ES_2 [7, 9]: 2.3953
- NES, BHATTACHARYA_EMBRYONIC_STEM_CELL [7, 9]: 2.2132
- NES, CONRAD_STEM_CELL [7, 9]: 2.1627
- NES, MISSIAGLIA_REGULATED_BY_METHYLATION_DN [7, 9]: 2.1720
- NES, MUELLER_PLURINET [7, 9]: 2.2694
- NES, PAL_PRMT5_TARGETS_UP [7, 9]: 2.2049
- NES, SCHLOSSER_MYC_TARGETS_AND_SERUM_RESPONSE_DN [7, 9]: 2.2821
- NES, SCHLOSSER_MYC_TARGETS_REPRESSED_BY_SERUM [7, 9]: 2.4043
- NES, SCHUHMACHER_MYC_TARGETS_UP [7, 9]: 2.5662
- NES, VSE2F_02 [7, 9]: 2.2708
- NES, WONG_EMBRYONIC_STEM_CELL_CORE [7, 9]: 2.4279
- NES, CONCANNON_APOPTOSIS_BY_EPOXOMICIN_UP [7, 10]: −2.2139
- NES, HAMAI_APOPTOSIS_VIA_TRAIL_DN [7, 10]: −1.9615
- NES, HELLER_SILENCED_BY_METHYLATION_UP [7, 10]: −1.9604
- NES, KERLEY_RESPONSE_TO_CISPLATIN_UP [7, 10]: −2.4408
- NES, KIM_RESPONSE_TO_TSA_AND_DECITABINE_UP [7, 10]: −1.9665
- NES, KYNG_DNA_DAMAGE_BY_UV [7, 10]: −2.0319
- NES, MISSIAGLIA_REGULATED_BY_METHYLATION_UP [7, 10]: −2.1687
- NES, MUELLER_METHYLATED_IN_GLIOBLASTOMA [7, 10]: −2.0961
- NES, RUGO_UV_RESPONSE [7, 10]: −1.9676
- apoptotic responses (PARP cleavage, sub G1 DNA content with G2 arrest) [8]: apoptotic responses; also recorded: induced apoptosis
